Patent publication US11485742B2, “2-azaspiro[3.4]octane derivatives as M4 agonists” (NOVARTIS AG, priority 2019, dated 2022)
pEC50: −log10 of the molar value.

What was measured:
[1] = target: T1, human cloned CHRM4 receptor (Homo sapiens, UniProt P08173); test: CHRM4 Ca++ Flux Assay (M4_CHO cells, agonist mode); assay type: cell-based; conditions: for Emax: Percent Activity (PA), read-out: M4 FDSS PA %; for pEC50: geometric mean if tested more than once, read-out: M4 FDSS EC50
T1 construct: expressed in transfected cells; host or cells: CHO-K1 (M4_CHO)
T1 sequence (P08173 1-479): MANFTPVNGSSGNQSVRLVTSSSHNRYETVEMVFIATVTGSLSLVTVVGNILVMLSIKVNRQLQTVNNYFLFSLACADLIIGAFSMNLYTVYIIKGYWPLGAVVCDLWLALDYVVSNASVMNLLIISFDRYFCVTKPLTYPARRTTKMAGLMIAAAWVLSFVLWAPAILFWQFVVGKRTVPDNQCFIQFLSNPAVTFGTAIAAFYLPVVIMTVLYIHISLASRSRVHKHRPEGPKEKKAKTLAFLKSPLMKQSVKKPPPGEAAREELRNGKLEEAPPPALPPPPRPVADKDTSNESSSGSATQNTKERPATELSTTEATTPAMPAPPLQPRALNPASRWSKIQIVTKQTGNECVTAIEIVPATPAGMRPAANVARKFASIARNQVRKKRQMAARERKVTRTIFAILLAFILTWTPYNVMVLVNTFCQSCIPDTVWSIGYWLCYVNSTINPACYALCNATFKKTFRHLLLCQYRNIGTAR
In short: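 CHO-K1 cells stably expressing human M4 were dye-loaded, then held 60 min at RT in Ca/Mg-free HBSS buffer with 20 μM ATP. Ca++ traces were recorded over 3 min after an 11-point compound series in triplicate, agonist mode, with a four-parameter fit. Percent activity is relative to the carbachol EC100; repeat tests are geometric means.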

[2] = target: T2, human cloned CHRM2 receptor (Homo sapiens, UniProt P08172); test: CHRM2 Ca++ Flux Assay (M2_CHO cells, agonist mode); assay type: cell-based; conditions: M2 CHO cells; for pEC50: agonist mode, geometric mean if tested more than once, read-out: M2 FDSS EC50; for Emax: Percent Activity (PA) measured to EC100 of Carbachol, read-out: M2 FDSS PA %
T2 construct: expressed in transfected cells; host or cells: CHO-K1 (M2_CHO)
T2 sequence (P08172 1-466): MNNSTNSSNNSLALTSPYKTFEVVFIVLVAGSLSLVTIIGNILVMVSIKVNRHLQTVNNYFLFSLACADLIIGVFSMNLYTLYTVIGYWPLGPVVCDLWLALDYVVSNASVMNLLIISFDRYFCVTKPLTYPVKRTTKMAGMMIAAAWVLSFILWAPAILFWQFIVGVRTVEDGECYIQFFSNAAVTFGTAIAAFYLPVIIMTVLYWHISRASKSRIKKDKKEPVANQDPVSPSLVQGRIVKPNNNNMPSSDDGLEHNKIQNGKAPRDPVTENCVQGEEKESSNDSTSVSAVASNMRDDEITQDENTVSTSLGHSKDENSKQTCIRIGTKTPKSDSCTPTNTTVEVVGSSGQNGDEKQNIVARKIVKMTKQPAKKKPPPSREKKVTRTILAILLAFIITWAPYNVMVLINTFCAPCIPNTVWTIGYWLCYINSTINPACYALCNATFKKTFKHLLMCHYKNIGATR
In short: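 CHO-K1 cells stably expressing human CHRM2 were plated overnight at 12K cells/well and loaded with Ca++ dye for 1–2 h. They were then held 60 minutes in HBSS −Ca/−Mg, 20 mM HEPES, 2.5 mM probenecid, 20 μM ATP. Agonist-mode Ca++ flux was read over 3 minutes. Four-parameter fits of triplicates gave percent activity relative to carbachol EC100.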

Row | Structure (SMILES) | Emax [1] [%] | pEC50 [1] | pEC50 [2] | Emax [2] [%]
1 | Fc1ccc(OCC2CCOCC2)c(C2CCN([C@@H]3COC4(C3)CN(c3nnco3)C4)CC2)c1 [Example 1J, (S)-7-(4-(5-fluoro-2-((tetrahydro-2H-pyran-4-yl)methoxy)phenyl)piperidin-1-yl)-2-(1,3,4-oxadiazol-2-yl)-5-oxa-2-azaspiro[3.4]octane] | 79 | 7.07 | 6.06 | 35
2 | c1ccc(C2CCN([C@@H]3COC4(C3)CN(c3nnco3)C4)CC2)c(-c2ncco2)c1 [Example 1X, (S)-2-(1,3,4-oxadiazol-2-yl)-7-(4-(2-(oxazol-2-yl)phenyl)piperidin-1-yl)-5-oxa-2-azaspiro[3.4]octane] | 84 | 6.95 | 5.61 | 25
3 | c1ccc(C2CCN([C@@H]3COC4(C3)CN(c3nnco3)C4)CC2)c(-c2cncnc2)c1 [Example 1W, (S)-2-(1,3,4-oxadiazol-2-yl)-7-(4-(2-(pyrimidin-5-yl)phenyl)piperidin-1-yl)-5-oxa-2-azaspiro[3.4]octane] | 89 | 7.92 | 6.28 | 68
4 | Fc1ccc(OC2COCOC2)c(C2CCN([C@@H]3COC4(C3)CN(c3nnco3)C4)CC2)c1 [Example 1M, (S)-7-(4-(2-((1,3-dioxan-5-yl)oxy)-5-fluorophenyl)piperidin-1-yl)-2-(1,3,4-oxadiazol-2-yl)-5-oxa-2-azaspiro[3.4]octane] | 79 | 7.03 | 6.12 | 23
5 | Fc1ccc(OC2CC3(COC3)C2)c(C2CCN([C@@H]3COC4(C3)CN(c3nncs3)C4)CC2)c1 [Example 5W, (S)-7-(4-(2-((2-oxaspiro[3.3]heptan-6-yl)oxy)-5-fluorophenyl)piperidin-1-yl)-2-(1,3,4-thiadiazol-2-yl)-5-oxa-2-azaspiro[3.4]octane] | 85 | 6.98 | 4.68 | 30
6 | COCCOc1ccc(F)cc1C1CCN([C@@H]2COC3(C2)CN(c2nnco2)C3)CC1 [Example 1L, (S)-7-(4-(5-fluoro-2-(2-methoxyethoxy)phenyl)piperidin-1-yl)-2-(1,3,4-oxadiazol-2-yl)-5-oxa-2-azaspiro[3.4]octane] | 74 | 7.00 | < 4.60 | 0
7 | COC(C)(C)CCOc1ccc(F)cc1C1CCN([C@@H]2COC3(C2)CN(c2nnco2)C3)CC1 [Example 1K, (S)-7-(4-(5-fluoro-2-(3-methoxy-3-methylbutoxy)phenyl)piperidin-1-yl)-2-(1,3,4-oxadiazol-2-yl)-5-oxa-2-azaspiro[3.4]octane] | 58 | 7.01 | < 4.60 | 0
8 | Fc1ccc(OC[C@H]2CCCO2)c(C2CCN([C@@H]3COC4(C3)CN(c3nnco3)C4)CC2)c1 [Example 2M, (S)-7-(4-(5-fluoro-2-(((R)-tetrahydrofuran-2-yl)methoxy)phenyl)piperidin-1-yl)-2-(1,3,4-oxadiazol-2-yl)-5-oxa-2-azaspiro[3.4]octane] | 58 | 6.84 | 5.69 | 20
9 | Fc1ccc(OCC2(F)COC2)c(C2CCN([C@@H]3COC4(C3)CN(c3nnco3)C4)CC2)c1 [Example 2J, (S)-7-(4-(5-fluoro-2-((3-fluorooxetan-3-yl)methoxy)phenyl)piperidin-1-yl)-2-(1,3,4-oxadiazol-2-yl)-5-oxa-2-azaspiro[3.4]octane] | 90 | 7.92 | 6.67 | 62
10 | Fc1ccc(OCC2COC2)c(C2CCN([C@@H]3COC4(C3)CN(c3nncs3)C4)CC2)c1 [Example 2A, (S)-7-(4-(5-fluoro-2-(oxetan-3-ylmethoxy)phenyl)piperidin-1-yl)-2-(1,3,4-thiadiazol-2-yl)-5-oxa-2-azaspiro[3.4]octane] | 79 | 7.62 | 6.28 | 46
11 | Fc1ccc(OC[C@H]2CCOC2)c(C2CCN([C@@H]3COC4(C3)CN(c3nncs3)C4)CC2)c1 [Example 5X, (S)-7-(4-(5-fluoro-2-(((S)-tetrahydrofuran-3-yl)methoxy)phenyl)piperidin-1-yl)-2-(1,3,4-thiadiazol-2-yl)-5-oxa-2-azaspiro[3.4]octane] | 71 | 7.24 | 5.85 | 43
12 | c1ccc(C2CCN([C@@H]3COC4(C3)CN(c3nnco3)C4)CC2)c(OC2COC2)c1 [Example 1P, (S)-2-(1,3,4-oxadiazol-2-yl)-7-(4-(2-(oxetan-3-yloxy)phenyl)piperidin-1-yl)-5-oxa-2-azaspiro[3.4]octane] | 94 | 7.55 | 5.96 | 51
13 | Fc1ccc(OC2CC3(COC3)C2)c(C2CCN([C@@H]3COC4(C3)CN(c3ncon3)C4)CC2)c1 [Example 6C, (S)-7-(4-(2-((2-oxaspiro[3.3]heptan-6-yl)oxy)-5-fluorophenyl)piperidin-1-yl)-2-(1,2,4-oxadiazol-3-yl)-5-oxa-2-azaspiro[3.4]octane] | 74 | 7.36 | 5.82 | 18
14 | CCc1nnc(COc2ccc(F)cc2C2CCN([C@@H]3COC4(C3)CN(c3nnco3)C4)CC2)s1 [Example 2T, (S)-7-(4-(2-((5-ethyl-1,3,4-thiadiazol-2-yl)methoxy)-5-fluorophenyl)piperidin-1-yl)-2-(1,3,4-oxadiazol-2-yl)-5-oxa-2-azaspiro[3.4]octane] | 89 | 8.70 | 7.39 | 44
15 | Fc1ccc(OC2COC2)c(C2CCN([C@@H]3COC4(C3)CN(c3nnco3)C4)CC2)c1 [Example 1A, (S)-7-(4-(5-fluoro-2-(oxetan-3-yloxy)phenyl)piperidin-1-yl)-2-(1,3,4-oxadiazol-2-yl)-5-oxa-2-azaspiro[3.4]octane] | 82 | 8.10 | 6.27 | 32
16 | Fc1ccc(OCC2CC3(COC3)C2)c(C2CCN([C@@H]3COC4(C3)CN(c3nnco3)C4)CC2)c1 [Example 2S, (S)-7-(4-(2-((2-oxaspiro[3.3]heptan-6-yl)methoxy)-5-fluorophenyl)piperidin-1-yl)-2-(1,3,4-oxadiazol-2-yl)-5-oxa-2-azaspiro[3.4]octane] | 68 | 6.62 | 5.66 | 29
17 | COc1cc(F)ccc1C1CCN([C@@H]2COC3(C2)CN(c2nnco2)C3)CC1 [Example 1S, (S)-7-(4-(4-fluoro-2-methoxyphenyl)piperidin-1-yl)-2-(1,3,4-oxadiazol-2-yl)-5-oxa-2-azaspiro[3.4]octane] | 68 | 7.10 | 6.18 | 13
18 | CC1(COc2ccc(F)cc2C2CCN([C@@H]3COC4(C3)CN(c3nnco3)C4)CC2)COC1 [Example 2K, (S)-7-(4-(5-fluoro-2-((3-methyloxetan-3-yl)methoxy)phenyl)piperidin-1-yl)-2-(1,3,4-oxadiazol-2-yl)-5-oxa-2-azaspiro[3.4]octane] | 82 | 7.74 | 6.30 | 47
19 | CC(C)(O)COc1ccccc1C1CCN([C@@H]2COC3(C2)CN(c2ncns2)C3)CC1 [Example 5Y, (S)-1-(2-(1-(2-(1,2,4-thiadiazol-5-yl)-5-oxa-2-azaspiro[3.4]octan-7-yl)piperidin-4-yl)phenoxy)-2-methylpropan-2-ol] | 64 | 6.96 | < 4.60 | 0
20 | Fc1ccc(OC[C@H]2CCOC2)c(C2CCN([C@@H]3COC4(C3)CN(c3nnco3)C4)CC2)c1 [Example 1I, (S)-7-(4-(5-fluoro-2-(((S)-tetrahydrofuran-3-yl)methoxy)phenyl)piperidin-1-yl)-2-(1,3,4-oxadiazol-2-yl)-5-oxa-2-azaspiro[3.4]octane] | 69 | 7.46 | 6.27 | 32
